Measured values reported in patent US10968176B2, “Pyrrolidone derivatives, oligomers and polymers” (NanoSynthons LLC, priority 2014, dated 2021).
Where two headings read alike, the source gives them in different places.

Assay: Fluorescence excitation/emission maxima and relative response per gram (luminescence spectrometer)
Type: physicochemical
Procedure: The appropriate alkyl or aryl amine (0.05 moles) was weighed into a 100 mL round-bottom flask equipped with a magnetic stirrer and containing 15 mL of dry methanol. While stirring, the appropriate dialkyl/diaryl itaconate (0.05 moles/primary amine moiety) dissolved in 15 mL of dry methanol was added dropwise over a period of 10 min. In some cases, a moderate exotherm was noted. The reaction was allowed to stir at RT for 1 h followed by refluxing for 8-10 h. The final product was obtained by removal of the solvent with a Buchi roto-evaporator to give a solid, liquid or syrup with yields ranging from 75-98%. See Table 2 in the Examples and FIGS. 3A-3B for their structures. These final products were characterized by FTIR, ^1H—, ^13C-NMR. Their UV-vis/fluorescence properties were evaluated with a fluorospectrometer (Spectramax from Molecular Devices) yielding data as described in Table 2 in the Examples.
Itaconic acid (Sigma-Aldrich) (0.05 moles/primary amine moiety) was weighed into a 100 mL round-bottom flask equipped with a magnetic stirrer. While stirring, the appropriate alkyl or aryl amine (0.05 moles) was added dropwise over a period of 10 min. […] The flask and reaction mixture was surmounted by a reflux condenser and immersed in an oil bath and heated at 125° C. for 2-5 h. The formation of water condensate from the reaction can be noticed in the condenser. A 25 mL portion of dry methanol is then added and the reaction mixture is refluxed for 1 h. Removal of solvent on a Buchi roto-evaporator produces the desired pyrrolidone product as an oil, syrup or solid in yields ranging from 59-95%. These final products were characterized by using a Thomas-Hoover capillary melting point apparatus, FTIR and ^1H—, ^13C-NMR. Their UV-vis/fluorescence properties were evaluated with a fluorescence spectrometer (Spectramax from Molecular Devices) yielding data as described in Table 2.
Fluorescence data was acquired with a Perkin-Elmer LS50B Luminescence spectrometer. Constant slit widths (Both excitation and emission—3 nm) were used and the concentrations were adjusted to give on scale emission responses. Emission responses were divided by concentration to give response per gram and multiplied by a scaling factor chosen to set the relative response of the standard, fluorescein-Na, to 1,000,000.

[1] = scaled so that fluorescein-Na = 1,000,000
[2] = peak 1, fluorescein-Na = 1,000,000
[3] = peak 2, fluorescein-Na = 1,000,000

Row | Compound | Emission Max [nm] | Excitation Max [nm] | Relative Response/g [1] | Emission Max (peak 1) [nm] | Excitation Max (peak 1) [nm] | Relative Response/g [2] | Emission Max (peak 2) [nm] | Excitation Max (peak 2) [nm] | Relative Response/g [3]
1 | c1ccc(C2=NCCN2)cc1 [2-Phenyl-2-imidazoline, reference compound] | 400 | 340 | 50.1 |  |  |  |  |  | 
2 | O=C1CCC(C(=O)O)N1 (stereo not drawn) [2-Pyrrolidone-5-carboxylic acid, reference compound] | 385 | 245 | 11.8 |  |  |  |  |  | 
3 | COC(=O)C1CC(=O)N(CCSSCCN2CC(C(=O)OC)CC2=O)C1 (stereo not drawn) [Compound 31] | 350 | 300 | 18.7 |  |  |  |  |  | 
4 | COC(=O)C1CC(=O)N(CCNC(=O)C2CC(=O)N(CCSSCCN3CC(C(=O)NCCN4CC(C(=O)OC)CC4=O)CC3=O)C2)C1 (stereo not drawn) [Compound 33] | 380 | 320 | 391.7 |  |  |  |  |  | 
5 | COC(=O)C1CC(=O)N(CCNC(=O)C2CC(=O)N(CCNC(=O)C3CC(=O)N(CCSSCCN4CC(C(=O)NCCN5CC(C(=O)NCCN6CC(C(=O)OC)CC6=O)CC5=O)CC4=O)C3)C2)C1 (stereo not drawn) [Compound 35] | 301 | 277 | 5.8 |  |  |  |  |  | 
6 | COC(=O)C1CC(=O)N(CCNC(=O)C2CC(=O)N(CCNC(=O)C3CC(=O)N(CCNC(=O)C4CC(=O)N(CCSSCCN5CC(C(=O)NCCN6CC(C(=O)NCCN7CC(C(=O)NCCN8CC(C(=O)OC)CC8=O)CC7=O)CC6=O)CC5=O)C4)C3)C2)C1 (stereo not drawn) [Compound 37] |  |  |  | 302 | 268 | 7.0 | 565 | 260 | 6.5

Second part, the compound after the results:

Row | Emission Max [nm] | Excitation Max [nm] | Relative Response/g [1] | Emission Max (peak 1) [nm] | Excitation Max (peak 1) [nm] | Relative Response/g [2] | Emission Max (peak 2) [nm] | Excitation Max (peak 2) [nm] | Relative Response/g [3] | Compound
7 | 410 | 335 | 2.7 |  |  |  |  |  |  | COC(=O)C1CC(=O)N(CCN2CC(C(=O)OC)CC2=O)C1 (stereo not drawn) [Compound 38]
8 |  |  |  | 415 | 355 | 37.8 | 420 | 245 | 11.1 | NCCNC(=O)C1CC(=O)N(CCN2CC(C(=O)NCCN)CC2=O)C1 (stereo not drawn) [Compound 39]
9 | 390 | 305 | 66.4 |  |  |  |  |  |  | COC(=O)C1CC(=O)N(CCNC(=O)C2CC(=O)N(CCN3CC(C(=O)NCCN4CC(C(=O)OC)CC4=O)CC3=O)C2)C1 (stereo not drawn) [Compound 40]
10 |  |  |  | 390 | 340 | 62.7 | 455 | 285 | 18.7 | NCCNC(=O)C1CC(=O)N(CCNC(=O)C2CC(=O)N(CCN3CC(C(=O)NCCN4CC(C(=O)NCCN)CC4=O)CC3=O)C2)C1 (stereo not drawn) [Compound 41]
11 | 405 | 335 | 30.7 |  |  |  |  |  |  | COC(=O)C1CC(=O)N(CCNC(=O)C2CC(=O)N(CCNC(=O)C3CC(=O)N(CCN4CC(C(=O)NCCN5CC(C(=O)NCCN6CC(C(=O)OC)CC6=O)CC5=O)CC4=O)C3)C2)C1 (stereo not drawn) [Compound 42]
12 | 440 | 355 | 22.8 |  |  |  |  |  |  | NCCNC(=O)C1CC(=O)N(CCNC(=O)C2CC(=O)N(CCNC(=O)C3CC(=O)N(CCN4CC(C(=O)NCCN5CC(C(=O)NCCN6CC(C(=O)NCCN)CC6=O)CC5=O)CC4=O)C3)C2)C1 (stereo not drawn) [Compound 43]
13 | 450 | 350 | 14.5 |  |  |  |  |  |  | COC(=O)C1CC(=O)N(CCNC(=O)C2CC(=O)N(CCNC(=O)C3CC(=O)N(CCNC(=O)C4CC(=O)N(CCN5CC(C(=O)NCCN6CC(C(=O)NCCN7CC(C(=O)NCCN8CC(C(=O)OC)CC8=O)CC7=O)CC6=O)CC5=O)C4)C3)C2)C1 (stereo not drawn) [Compound 44]
14 | 510 | 470 | 1,000,000.0 |  |  |  |  |  |  | O=C([O-])c1ccccc1-c1c2ccc(=O)cc-2oc2cc([O-])ccc12.[Na+].[Na+] [Fluorescein-Na, reference compound]
